Assay results taken from patent US7825111B2, “Substituted spiroheterocycles” (Janssen Pharmaceutica NV, priority 2006, dated 2010).

Key:
human V2 receptor [1] = target: T1, human V2 receptor (Homo sapiens, UniProt P30518); experiment: V2 vasopressin receptor functional activity (cAMP accumulation, V2-HEK cells); format: cell-based; design: expressed in transfected cells; host or cells: HEK-293; conditions: inhibition of vasopressin-stimulated cAMP accumulation in V2-HEK cells
Method: The V2 receptor is also a G-protein coupled receptor which when activated induces an increase in cAMP turnover. Antagonism against the V2 receptor is determined by measuring cAMP accumulation in transfected HEK-293 cells expressing the human V-2 receptor (V2-HEK cells). Compounds are tested for their ability to block the stimulatory effects of vasopressin on cAMP accumulation. The cell content of cAMP is measured by radioimmunoassay using NEN flashplates.

human V2 receptor [2] = target: T1, human V2 receptor; experiment: In-vitro binding assay, 3H-arginine-8-vasopressin, V2 membranes; conditions: membrane containing human V2 receptor; for inhibition at 0.2 µM: read-out: V2 (binding) Percent inhibition at 0.2 μM; for IC50: 3H-vasopressin 0.65-0.75 nM
Method: (§1) Assay buffer is 50 mM Tris-Cl, 5 mM MgCl2, 0.1% BSA (pH 7.5) containing 5 μg/ml of aprotinin, leupeptin, pepstatin, 50 μg/ml bacitracin, and 1 mM Pefabloc (4-(2-Aminoethyl)-benzenesulfonyl fluoride, hydrochloride manufactured by Roche Diagnostics Corporation, Indianapolis, Ind. and distributed by Boehringer Mannheim). H3 vasopressin is ^3H-arginine-8-vasopressin (NEN Life Sciences, Boston, Mass.; 68.5 Ci/mmol, final concentration in assay is 0.65-0.75 nM). Into wells of 96-well round bottom polypropylene plates are added buffer, test compound, membrane (containing human V1a or V2 receptor), and H3 vasopressin. The reaction plates are allowed to sit at room temperature for one hour. The samples are filtered through Unifilter GF/C plates (PerkinElmer Life Sciences, Boston, Mass.) presoaked in 0.3 polyethyleneimine. The plates are washed 5 times with cold physiological saline containing 0.05% Tween 20. After drying, the bottom of the filter plates are sealed and 0.025 ml of Microscint-20 (Packard Instrument Co, Meriden, Conn.) is added to each filter. The top of the plate is sealed, and the plate is counted. Non-specific binding is determined by the addition of 1.25 μM arginine-8-vasopressin in those wells. % Inh. is calculated as follows: % inhibition=100−100×peak response after drug/peak response before drug

human V1a receptor [3] = target: T2, human V1a receptor (Homo sapiens, UniProt P37288); experiment: V1a vasopressin receptor functional activity (calcium mobilization, FLIPR, V1a-HEK cells); format: cell-based; conditions: inhibition of vasopressin-induced intracellular calcium mobilization in V1a-HEK cells
Method: The V1a receptor is a G-protein coupled receptor, which upon activation triggers an increase in intracellular calcium mobilization. To evaluate compounds for their functional V1a receptor activity, HEK-293 cells were transfected with the human V1a receptor (V1a-HEK cells). HEK-293 cells were grown in DMEM (Dulbecco's modified Eagle Media) supplemented with 10% FBS and glutamine. HEK-cells were passed biweekly by trypsinization and seeded into 96 well plates at 33,000 cells per well. HEK-293 cells were transfected with human V1a receptor DNA using DMRIE-C reagent from Life Technologies (Carlsbad, Calif.). Stable lines were generated by selecting cells grown in culture media containing geneticin. After growing in Packard Clear-View black 96 well plates for 4-6 days, V1a-HEK cells were loaded with the calcium-sensitive fluorescence dye, FLUO-3 AM. Changes in intracellular calcium mobilization were measured by quantitating intracellular fluorescence using FLIPR (Fluorometric Imaging Plate Reader; Molecular Devices, Sunnyvale, Calif.). Test compounds were first added to the cells and the resulting changes in fluorescence measured to detect receptor agonistic activity. Five minutes later the cells were challenged with vasopressin to test compounds for their antagonistic activity. Receptor antagonists inhibit the ability of vasopressin to stimulate increases in intracellular fluorescence. IC50's were calculated.

human V1a receptor [4] = target: T2, human V1a receptor; experiment: In-vitro binding assay, 3H-arginine-8-vasopressin, V1a membranes; conditions: membrane containing human V1a receptor; for IC50: 3H-vasopressin 0.65-0.75 nM; for inhibition at 0.2 µM: read-out: V1a (binding) Percent inhibition at 0.2 μM
Method: as §1

T1 sequence (P30518 whole entry): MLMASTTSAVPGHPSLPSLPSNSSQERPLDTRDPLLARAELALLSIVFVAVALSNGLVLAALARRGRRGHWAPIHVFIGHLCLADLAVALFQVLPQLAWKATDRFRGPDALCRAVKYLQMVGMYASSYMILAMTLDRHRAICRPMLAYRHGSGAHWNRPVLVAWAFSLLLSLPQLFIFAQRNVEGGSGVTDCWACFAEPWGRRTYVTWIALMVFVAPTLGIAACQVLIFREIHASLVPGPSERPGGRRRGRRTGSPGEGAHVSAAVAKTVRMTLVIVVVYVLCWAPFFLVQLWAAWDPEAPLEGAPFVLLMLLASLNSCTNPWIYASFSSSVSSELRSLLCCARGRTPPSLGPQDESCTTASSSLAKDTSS
T2 sequence (P37288 whole entry): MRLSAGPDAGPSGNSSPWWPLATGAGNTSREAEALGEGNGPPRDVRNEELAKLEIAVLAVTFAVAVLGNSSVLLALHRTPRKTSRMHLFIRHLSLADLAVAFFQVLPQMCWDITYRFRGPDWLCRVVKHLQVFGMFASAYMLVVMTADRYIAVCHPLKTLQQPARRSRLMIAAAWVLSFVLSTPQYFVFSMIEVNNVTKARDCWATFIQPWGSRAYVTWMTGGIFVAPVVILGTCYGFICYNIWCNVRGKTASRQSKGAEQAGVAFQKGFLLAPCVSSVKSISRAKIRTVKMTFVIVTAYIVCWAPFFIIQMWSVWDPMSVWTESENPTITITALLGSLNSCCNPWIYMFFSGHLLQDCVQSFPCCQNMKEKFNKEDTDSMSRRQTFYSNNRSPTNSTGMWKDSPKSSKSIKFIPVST

| IC50 (human V2 receptor [1]) [µM] | inhibition at 0.2 µM (human V2 receptor [2]) [%] | IC50 (human V1a receptor [3]) [µM] | IC50 (human V1a receptor [4]) [nM] | IC50 (human V2 receptor [2]) [nM] | inhibition at 0.2 µM (human V1a receptor [4]) [%] | Compound |
| --- | --- | --- | --- | --- | --- | --- |
| – | – | 0.38 | 47 | 50 | – | CN1CCCC2(CCN(C(=O)c3ccc(NC(=O)c4ccccc4-c4ccccc4)cc3)c3ccccc3C2)C1=O (stereo not shown) [Compound 10, [1,1′-Biphenyl]-2-carboxamide, N-[4-[(2,3-dihydro-1′-methyl-2′-oxospiro{4H-1-benzazepine-4,3′-piperidin}-1(5H)-yl)carbonyl]phenyl}-] |
| 0.132 | – | 0.05 | 56 | 61 | – | CCN1CCCC2(CCN(C(=O)c3ccc(NC(=O)c4ccccc4-c4ccccc4)cc3)c3ccccc3C2)C1=O (stereo not shown) [Compound 11, [1,1′-Biphenyl]-2-carboxamide, N-[4-[(2,3-dihydro-1′-ethyl-2′-oxospiro{4H-1-benzazepine-4,3′-piperidin}-1(5H)-yl)carbonyl]phenyl}-] |
| 0.437 | – | 0.08 | 43 | 37 | – | CN1CCC2(CCN(C(=O)c3ccc(NC(=O)c4ccccc4-c4ccccc4)cc3)c3ccccc3C2)C1=O (stereo not shown) [Compound 21, [1,1′-Biphenyl]-2-carboxamide, N-[4-[(2,3-dihydro-1′-methyl-2′-oxospiro{4H-1-benzazepine-4,3′-pyrrolidin}-1(5H)-yl)carbonyl]phenyl}-] |
| – | 17 | – | – | – | 27 | O=C(O)CN1CCC2(CCN(C(=O)c3ccc(NC(=O)c4cc(F)ccc4Cl)cc3)c3ccccc3C2)C1=O (stereo not shown) [Compound 23, Spiro{4H-1-benzazepine-4,3′-pyrrolidin}-1′-acetic acid, 1-[{(2-chloro-5-fluorobenzoyl)amino}benzoyl]1,2,3,5-tetrahydro-2′-oxo-] |
| 0.062 | – | 0.054 | 7 | 18 | – | O=C(Nc1ccc(C(=O)N2CCC3(CCNC3=O)Cc3ccccc32)cc1)c1ccccc1-c1ccccc1 (stereo not shown) [Compound 25, [1,1′-Biphenyl]-2-carboxamide, N-[4-[(2,3-dihydro-2′-oxospiro{4H-1-benzazepine-4,3′-pyrrolidin}-1(5H)-yl)carbonyl]phenyl}-] |
| – | – | – | 160 | 230 | – | O=C(Nc1ccc(C(=O)N2CCC3(CCNC3=O)Cc3ccccc32)cc1)c1ccccc1F (stereo not shown) [Compound 26, Benzamide, 2-fluoro-N-[4-{(2,3-dihydro-2′-oxospiro[4H-1-benzazepine-4,3-pyrrolidin}-1(5H)-yl)carbonyl}phenyl]] |
| 0.06 | – | 0.05 | 45 | 230 | – | O=C1CCCC2(CCN(C(=O)c3ccc(NC(=O)c4ccccc4-c4ccccc4)cc3)c3ccccc3C2)N1 (stereo not shown) [Compound 35, [1,1′-Biphenyl]-2-carboxamide, N-[4-[(2,3-dihydro-6′-oxospiro[4H-1-benzazepine-4,2′-piperidin]-1(5H)-yl)carbonyl]phenyl}-] |
| > 3 | 17 | 0.05 | 27 | – | – | O=C(Nc1ccc(C(=O)N2CCC3(CCCNC3=O)Cc3ccccc32)cc1)c1ccccc1F (stereo not shown) [Compound 36, Benzamide, 2-fluoro-N-[4-{(2,3-dihydro-2′-oxospiro[4H-1-benzazepine-4,3-piperidin}-1(5H)-yl)carbonyl}phenyl]] |
| – | 23 | 0.12 | 50 | – | – | O=C(Nc1ccc(C(=O)N2CCC3(CCCNC3=O)Cc3ccccc32)cc1)c1ccccc1 (stereo not shown) [Compound 37, Benzamide, N-[4-{(2,3-dihydro-2′-oxospiro[4H-1-benzazepine-4,3-piperidin}-1(5H)-yl)carbonyl}phenyl]] |

Continued, molecule first:

| Compound | IC50 (human V2 receptor [1]) [µM] | inhibition at 0.2 µM (human V2 receptor [2]) [%] | IC50 (human V1a receptor [3]) [µM] | IC50 (human V1a receptor [4]) [nM] | IC50 (human V2 receptor [2]) [nM] | inhibition at 0.2 µM (human V1a receptor [4]) [%] |
| --- | --- | --- | --- | --- | --- | --- |
| O=C(Nc1ccc(C(=O)N2CCC3(CCCNC3=O)Cc3ccccc32)cc1)c1cc(F)ccc1Cl (stereo not shown) [Compound 7, Benzamide, 2-chloro-N-[4-{(2,3-dihydro-2′-oxospiro[4H-1-benzazepine-4,3-piperidin}-1(5H)-yl)carbonyl}phenyl]-5-fluoro] | 0.49 | 63 | 0.05 | 9 | – | – |
| O=C(Nc1ccc(C(=O)N2CCC3(CCNC3=O)Cc3ccccc32)cc1)c1cc(F)ccc1Cl (stereo not shown) [Compound 18, Benzamide, 2-chloro-N-[4-{(2,3-dihydro-2′-oxospiro[4H-1-benzazepine-4,3-pyrrolidin}-1(5H)-yl)carbonyl}phenyl]-5-fluoro] | 0.226 | – | 0.01 | 8 | 150 | – |
| CCOC(=O)CN1CCC2(CCN(C(=O)c3ccc(NC(=O)c4cc(F)ccc4Cl)cc3)c3ccccc3C2)C1=O (stereo not shown) [Compound 22, Spiro{4H-1-benzazepine-4,3′-pyrrolidin}-1′-acetic acid, 1-[{(2-chloro-5-fluorobenzoyl)amino}benzoyl]1,2,3,5-tetrahydro-2′-oxo, ethyl ester] | – | 17 | – | – | – | 66 |
| Cc1ccc(F)cc1C(=O)Nc1ccc(C(=O)N2CCC3(CCNC3=O)Cc3ccccc32)cc1 (stereo not shown) [Compound 27, Spiro{4H-1-benzazepine-4,3′-pyrrolidin}-[{(2-methyl-5-fluorobenzoyl)amino}benzoyl]1,2,3,5-tetrahydro-2′-oxo-] | – | – | – | 15 | 89 | – |
| Cc1ccc(F)cc1C(=O)Nc1ccc(C(=O)N2CCC3(CCNC3=O)Cc3ccccc32)cn1 (stereo not shown) [Compound 38, Spiro{4H-1-benzazepine-4,3′-pyrrolidin}-[{(2-methyl-5-fluorobenzoyl)amino}nicotinoyl]1,2,3,5-tetrahydro-2′-oxo-] | 0.036 | – | 0.13 | – | 93 | 64 |
| COc1cc(C(=O)N2CCC3(CCN(C)C3=O)Cc3ccccc32)ccc1NC(=O)c1cc(F)ccc1Cl (stereo not shown) [Compound 39] | – | – | 0.07 | – | 8 | 58 |
